Here are results for 25 compounds from PMC8774223, “Comparison of Antiplatelet Effects of Phenol Derivatives in Humans” (Biomolecules, 2022).

The IC25 is the concentration needed for an effect of 25%. A word on the IC50: it is the point on the concentration scale where inhibition reaches its midpoint.

Converted amounts (≈) assume the structure as drawn. Read-outs that look alike come from different tables or passages of the source. Where only a bound is given, the exact number is not on record here.

Data set [1] concerns platelet aggregation induced by collagen. Nature of the data set: Collagen-induced platelet aggregation, whole blood aggregometry. The note with it: for IC25: Platelet, human whole blood, read-out: IC25 (Mean ± SD, μM) on Collagen-Induced Platelet Aggregation; for Effect on collagen-induced aggregation compared with ASA: comparison of 95% confidence intervals of fitted curves / IC25. It counts as cell-based, human. Here is the method: Blood from 20 non-smoking, young (aged from 22 to 45 years, median 27), healthy volunteers was collected by venipuncture into plastic tubes containing heparin sodium (170 IU/10 mL; Zentiva, Prague, Czech Republic). No medication had been taken by volunteers 14 days prior blood collection and no alcohol had been consumed 12 h before the blood draw. The protocol was approved by the Ethics Committee of the Faculty of Pharmacy, Charles University on May 31, 2019.
(§1) A total of 300 µL of whole blood was diluted with the same volume of 0.9 % sodium chloride (B.Braun, Melsungen, Germany) preheated to 37 °C and incubated with 5 µL of a tested compound dissolved in DMSO (Penta, Prague, Czech Republic) at a final concentration of 0.8% for 3 min at 37 °C. Platelet aggregation was then induced by addition of collagen (Diagnostica a.s., Czech Republic), arachidonic acid (AA) or Thrombin Receptor Activating Peptide (TRAP) (Roche Holding AG, Basel, Switzerland) and monitored for 6 min. The dose of inducer was initially set to the minimal concentration which caused maximal aggregation. The second calibration was carried out by use of standards, 4-methylcatechol in the case of AA- and collagen-triggered aggregation (Sigma-Aldrich) or vorapaxar for thrombin aggregation (Selleck Chemicals GmbH, Munich, Germany). The final concentrations of inducers were in the range of 0.16–2.42 µg/mL for collagen, 25–196 µM for AA and 0.8–9.8 µM for TRAP. For comparison, also the clinically used standard ASA was employed.

Data set [2] concerns platelet aggregation triggered by AA. Nature of the data set: Arachidonic acid (AA)-induced platelet aggregation, whole blood aggregometry. Type of data set: cell-based, human. The following applies: for IC50: Platelet. How it is done: Blood from 20 non-smoking, young (aged from 22 to 45 years, median 27), healthy volunteers was collected by venipuncture into plastic tubes containing heparin sodium (170 IU/10 mL; Zentiva, Prague, Czech Republic). No medication had been taken by volunteers 14 days prior blood collection and no alcohol had been consumed 12 h before the blood draw.
as §1, with “The final concentrations of inducers were in the range of 0.16–2.42 µg/mL for collagen, 25–196 µM for AA and 0.8–9.8 µM for TRAP.” left out

Details of data set [3]: method as in PMID 25571923. The following applies: humans, on average; cited from earlier work.
The next data set relates to plasmids. The note with it: 50 μM, without redox-active metals; cited from earlier work.
In another data set the test system is bacterial colonies. On the set-up: method as in PMID 11351422. The following applies: cited from earlier work.
The test system of data set [4] is MCF-7/S0.5 human breast cancer cell line. Nature of the data set: CellTiter 96 AQueous One Solution Cell Proliferation Assay. The note with it: 48 h. Type of data set: cell-based. How it is done: MCF-7/S0.5 human breast cancer cell line adapted to low-sera conditions (ECACC, Porton Down, Salisbury, UK) was used. Cells were maintained at 37 °C and 5% CO2 and were passaged once a week. Dulbecco’s Modified Eagle Medium/Nutrient Mixture F-12 (DMEM/F-12; Thermo Fisher, Waltham, MA, USA) supplemented with FBS Charcoal Stripped, antibiotics (penicillin/streptomycin) and insulin, according to cell provider instructions, was used as the growth medium. Cells were used in passages between 7 and 12.
Cell viability assay was performed using CellTiter 96® AQueous One Solution Cell Proliferation Assay (Promega, Madison, WI, USA). MCF-7 cells were seeded at a density of 80 × 10^3 cells per well in a 96-well plate. Cells were exposed to the compounds and incubated at 37 °C with CO2 5% for 48 h prior tetrazolium reagent [3-(4,5-dimethylthiazol-2-yl)-5-(3-carboxymethoxyphenyl)-2-(4-sulfophenyl)-2H-tetrazolium] addition (20 µL/well). DMSO at a final concentration of 0.1% (as it is not associated with toxicity) was used as a negative control (set to 100% viability), and sodium dodecyl sulfate (SDS 10%) as positive control. After incubation period CellTiter reagent was added to the cells and further incubated for 3 h. After this time, absorbance was recorded at a wavelength of 490 nm by use of a microplate reader (Hidex Oy, Turku, Finland). All samples were performed in triplicates and repeated at least three times.

Data set [5] relates to encephalomyocarditis virus. Also on record: method as in PMID 35558500. The note with it: cited from earlier work; for Antiviral potency relative to catechol: lowest tested concentration 0.4 mg/mL (approximately 3 mM).
Data set [6] deals with three different cell lines. On the set-up: method as in PMID 26885667. The following applies: 30 μM; cited from earlier work.
Another data set deals with Nrf2. The note with it: many cell lines; effect observed even at 5 μM; cited from earlier work.
The next data set deals with thrombin pathway. The following applies: cited from earlier work.
A further data set deals with platelet aggregation. The following applies: cited from earlier work.
[7] abbreviates: human whole blood, class assigned by colour of the drawn structure, read-out: IC50 class, colour key of Figure 3.
The mark [8] stands for this setting: human whole blood, read-out: IC50 (Mean ± SD, μM) on Arachidonic Acid-induced Platelet Aggregation.
Where [9] appears, read: Homo sapiens, read-out: IC50 class, colour key of Figure 3.

As for `COc1cc(C)ccc1O` [2-methoxy-4-methylphenol], in data set [1], the IC25 is 11.5 ± 9.05 µM and the “Effect on collagen-induced aggregation compared with ASA” value (“Effect … compared with ASA” below) is on record as “significantly more efficient than ASA”. The IC50 in data set [2] (setting [7]) was less than 3 µM. For the same compound, the IC50 in [2] (setting [8]) was 2.57 ± 2.24 µM.
On to `O=S(=O)(O)Oc1ccccc1O` [pyrocatechol-sulfate], for which the Plasma levels in data set [3] is 12 µM.
Regarding `Nc1cccc(O)c1O` [3-aminocatechol], in data set [2] (setting [8]), the IC50 was 3.82 ± 0.5 µM.
On to `Oc1ccc(Cl)cc1O` [4-chlorocatechol], for which the DNA damage result in the data set on plasmids was “no DNA damage was observed”. Also, in data set [2] (setting [8]), the IC50 was 3.66 ± 0.29 µM. In addition, in the data set with bacterial colonies, the Antibacterial activity result is recorded as “Antibacterial activity was observed”.
With `Cc1cccc(O)c1O` [3-methylcatechol], the IC25 in [1] came to 7.15 ± 6.41 µM. Further, the IC50 in [2] (setting [7]) is less than 3 µM; in data set [2] (setting [8]), 1.61 ± 0.17 µM.
Turning to `CC(=O)Oc1ccccc1C(=O)O` [ASA, acetylsalicylic acid, reference compound], the IC25 in data set [1] came to 26.9 ± 2.25 µM.
Take `CC(C)c1cccc(O)c1O` [3-isopropylcatechol]: the IC25 in data set [1] came out at 12.9 ± 21.3 µM. Moreover, the 50% inhibitory concentration (IC50) in data set [2] (setting [7]) was less than 3 µM; in data set [2] (setting [8]) it was 2.28 ± 0.3 µM. Further, the “Cell proliferation / viability, MCF-7/S0.5” value was “not toxic” in data set [4] (10 μM) and “decreased cell proliferation” in data set [4] (100 μM).
Turning to `COc1cccc(O)c1O` [3-methoxycatechol], the “Antiviral potency relative to catechol” value in [5] is reported as “more potent”. Besides, the IC50 in data set [2] (setting [8]) was found to be 7.92 ± 0.74 µM.
As to `CCc1ccc(O)c(O)c1` [4-ethylcatechol], the IC25 in data set [1] is 4.61 ± 1.16 µM. Besides, in data set [1], the “Effect … compared with ASA” value is given as “significantly more efficient than ASA”. In addition, in [6], the “Toxicity to cell lines” value is reported as “not toxic”. For the same compound, the “Activation of Nrf2” value with Nrf2 was “clearly confirmed”. The “Antiviral potency relative to catechol” value in data set [5] is on record as “more potent”. The IC50 in data set [2] (setting [7]) was less than 3 µM; in data set [2] (setting [8]) it was 1.29 ± 0.14 µM.
Take `Cc1ccccc1N` [o-toluidine]: the 50% inhibitory concentration (IC50) in data set [2] (setting [9]) was greater than 100 µM. The “Activity towards AA-induced aggregation (in words)” value in [2] (human whole blood) is “inactive or only weakly active”.
For `COc1ccc(C)c(OC)c1` [2,4-dimethoxytoluene], the values for the IC50 in data set [2] (setting [7]) and in data set [2] (setting [8]) were greater than 100 µM and roughly 32 µM, respectively.
As to `CC(C)(C)c1ccc(O)c(O)c1` [4-tert-butylcatechol], the IC50 in data set [2] (setting [8]) worked out at 7.24 ± 3.75 µM.
As to `CCc1ccc(O)cc1` [4-ethylphenol], the “Activation of Nrf2” value in the data set with Nrf2 was “inactive”.
In the case of `Cc1ccc(O)c(O)c1` [4-methylcatechol, reference compound], in data set [1], the IC25 came to 2.66 ± 2.21 µM. The “Toxicity to cell lines” value in [6] was “not toxic”. In addition, the “Effect on thrombin pathway” value in the data set with thrombin pathway is given as “no effect”. In addition, the IC50 was less than 3 µM in [2] (setting [7]) and 2.59 ± 0.17 µM in data set [2] (setting [8]). Besides, the “Antiplatelet potency relative to acetylsalicylic acid (ASA)” value in the data set on platelet aggregation is “approximately ten times higher potency”.
Take `Cc1ccccc1O` [o-cresol]: in the data set with thrombin pathway, the “Effect on thrombin pathway” value is “no effect”. In addition, the IC50 in data set [2] (setting [9]) was greater than 10 µM; in data set [2] (setting [8]), 12 ± 5.55 µM. Further, the “Inhibition of platelet aggregation” value in the data set on platelet aggregation is reported as “inhibited platelet aggregation”.
Consider `Oc1ccccc1O` [pyrocatechol], for which the “Toxicity to cell lines” value in data set [6] is reported as “not toxic”. In the data set on Nrf2, the “Activation of Nrf2” value is listed as “clearly confirmed”. In addition, the IC50 antiviral activity in data set [5] is 670 µg/mL (≈ 6.08 mM). Further, the IC50 is 6000 µM in [5] (read-out: IC50 antiviral activity) and 4 ± 0.45 µM in data set [2] (setting [8]). Moreover, the Antibacterial activity entry in the data set on bacterial colonies is on record as “Antibacterial activity was observed”.
As to `C=Cc1ccc(O)c(O)c1` [4-vinylcatechol], the “Toxicity to cell lines” value in data set [6] is recorded as “not toxic”.
Regarding `Nc1ccc(O)c(O)c1` [4-aminocatechol], the IC50 was greater than 10 µM in data set [2] (setting [7]) and roughly 21 µM in data set [2] (setting [8]).
On to `Oc1cc(Cl)c(Cl)cc1O` [4,5-dichlorocatechol], for which the IC25 in [1] stood at 9.86 ± 15.1 µM. In addition, the IC50 in data set [2] (setting [8]) is 3.35 ± 0.92 µM. In addition, the “Cell proliferation / viability, MCF-7/S0.5” value in data set [4] (10 μM) is recorded as “not toxic”; in data set [4] (100 μM), “decreased cell proliferation”; in data set [4] (100 μM, listed as 4,5-dichlorcatechol) it was “blocked cell proliferation”.
As to `COc1ccccc1OC` [1,2-dimethylcatechol, 1,2-dimethoxybenzene], the IC50 in data set [2] (Homo sapiens, read-out: IC50 (Mean ± SD, μM) on Arachidonic Acid-induced Platelet Aggregation) is roughly 78 µM; in [2] (setting [9]) it was greater than 100 µM. The “Activity towards AA-induced aggregation (in words)” value in data set [2] (human whole blood) was “inactive”.
Consider `Oc1cc(Cl)cc(Cl)c1O` [3,5-dichlorocatechol], for which the DNA damage result in the data set on plasmids is “no DNA damage was observed”. The IC50 in data set [2] (setting [9]) is greater than 10 µM; in [2] (setting [8]) it was 13.5 ± 1.57 µM. In addition, the “Cell proliferation / viability, MCF-7/S0.5” value is listed as “not toxic” in [4] (10 μM) and “decreased cell proliferation” in data set [4] (100 μM). In addition, the “Formation of bacterial colonies” value with bacterial colonies (10 μM) is on record as “blocked the formation of bacterial colonies”. Also, in the data set with bacterial colonies, the Antibacterial activity entry is reported as “Antibacterial activity was observed”.
Turning to `O=[N+]([O-])c1ccc(O)c(O)c1` [4-nitrocatechol], the IC50 was greater than 10 µM in data set [2] (setting [7]) and 13.3 ± 1.57 µM in data set [2] (setting [8]). Also, the “Cell proliferation / viability, MCF-7/S0.5” value is given as “not toxic” in data set [4] (10 μM) and “decreased cell proliferation” in data set [4] (100 μM).
Turning to `Oc1ccc(F)cc1O` [4-fluorocatechol], in data set [1], the IC25 came out at 4.72 ± 0.28 µM and the “Effect … compared with ASA” value was “significantly more efficient than ASA”. In [2] (setting [7]), the IC50 is less than 3 µM. Besides, the IC50 in [2] (setting [8]) is 1.82 ± 0.21 µM.
With `Nc1ccccc1O` [2-aminophenol], in data set [2] (setting [8]), the IC50 turned out to be 6.65 ± 1.06 µM.
Consider `Oc1cccc(F)c1O` [3-fluorocatechol], for which the values for the IC50 in data set [2] (setting [7]) and in data set [2] (setting [8]) were less than 3 µM and 1.74 ± 0.17 µM, respectively.
